What was measured:
[1] = system: enhancer-sensitive neurons of isolated rat brain stem; conditions: optimal concentration for specific enhancer effect, 3-min collection period; review Knoll, 2005; cited from earlier work
UW-228-2 cell line = assay: MTT proliferation assay, UW-228-2 medulloblastoma cells; format: cell-based, human; conditions: 72 hours; for proliferation of cultured cells, monotherapy: nine concentrations between 10^-14 and 10^-6 M, MTT
Protocol: (§1) Human medulloblastoma cell line, Daoy was purchased from ATCCC, UW-228 was obtained from the courtesy of Professor Silber (University of Washington, Seattle, Wash., USA).
(§2) Daoy and UW-228-2 cell lines were maintained in culture medium (each 500 ml Minimum Essential Medium Eagle, Alpha Modification (M8042, Sigma, St Louis, USA) with 50 ml FCS (Gibco), 40 mg Gentamicin (Sandoz), 5 ml sodium-pyruvate (S8636, Sigma, St Louis, USA), 5 ml non-essential-amino acid solution (M7145, Sigma, St Louis, USA), 10 ml L-glutamin (Sigma, St Louis, USA) at 37° C. in humified 5% CO2.
(§3) In each well 3×10^3 Daoy or UW-228-2 cells were seeded in 96-well plates (Sarstedt), solved in 100 µl of its own medium with 10% FCS. 24 hours after seeding, cells were treated for 72 hours by drugs solved in further 100 μl medium. First, both cell lines were treated by (−)-BPAP and (−)-deprenil in monotherapy to determine its dose-effect curves in concentration of 10^−6, 10^−7, […], 10^−9, 10^−10, 10^−11, 10^−12, 10^−13 and 10^−14 M. In combined treatment 10^−3, 3.3×10^−4, […] and 3.7×10^−5 M of temozolomide (Schering Plough, USA) or 0.04, 0.2, 1, 5 μM of Cisplatin (Ebewe Pharma, Austria) or 0.04, 0.2, 1, 5 μM of etoposide (Ebewe Pharma, Austria) or 10^−7, 10^−6, 10^−5 and 10^−4 μM (UW228-2) or 0.001, 0.005, 0.025 and 0.125 μM (Daoy) of Vincristin (Richter Gedeon, Hungary) were applied in monotherapy or combined with 10^−13 or 10^−8 M of (−)-BPAP or (−)-deprenil.
(§4) Cell proliferation was evaluated by MTT (3-(4,5-Dimethylthiazol-2-yl)-2,5-diphenyltetrazolium bromide) assay (M5655, Sigma) after 72-hour treatment by the method described in manufacturer's protocol.

fibromyxosarcoma = assay: Longevity study: manifestation of subcutaneous fibromyxosarcoma (TMS effect); format: in vivo, Wistar rats; conditions: for month in which the last animal manifested the tumor / rats that manifested the tumor to the end of the 32nd month of age / rats that manifested the tumor when the group completed the 30th month of life / age at which the first animal manifested the tumor: N=40; for rats that manifested the tumor to the end of the 32nd month of age / rats that manifested the tumor when the group completed the 30th month of life: saline 20 rats; for age at which the first animal manifested the tumor: saline: 11th month; for span of time from tumor manifestation until death, versus saline: chronic treatment, One-way ANOVA (FIG. 13)
Protocol: The longevity study was performed on 200 male rats received from the breeding colony of the Semmelweis University. The rats were born at the end of February of 2010. After 2-month acclimation period the rats were divided randomly into 5 even groups. The longevity study started at the beginning of May 2010. Animals were observed until their natural deaths. The data in this study represent the changes observed until Oct. 31, 2012, since in the saline-treated group the last animal died on Oct. 31, 2012. As will be shown later a few rats in the enhancer-treated groups were still alive on Nov. 1, 2012.
During the longevity study 5 rats were housed together in polycarbonate cages (height: 18 cm; wide: 42 cm; length: 44 cm) with a stainless steel on the top. Cage bedding was renewed 3 times a week (Monday, Wednesday and Friday). Bodyweight was measured once every month. The treatment started at the end of the second month of their age. […] To avoid the mixing of the groups and individuals, saline-treated rats were signed blue from 1 to 40; D-treated rats were signed green from 1 to 80 (1-40: rats treated with 0.1 mg/kg and 41-80: rats treated with 0.001 mg/kg); B-treated rats were signed black from 1 to 80 (1-40: rats treated with 0.05 mg/kg and 41-80: rats treated with 0.0001 mg/kg).
We carefully observed the appearance of the subcutaneous tumor and followed the development of the tumor until death. Histological analysis was performed post mortem on several rats taken from each group as examples.
The subcutaneous tumors developed in the rats were measured by the two largest diameters. After sacrificing the animals, the tumors were removed, photographs were taken. Tissues were fixed immediately after removal in 10% neutral formalin (in PBS, pH7.0) for 24 hours at room temperature, dehydrated and embedded in paraffin. 3-4 micrometer thick sections were cut and stained by hematoxylin and eosin (HE) as a routine.
Significance in the performance between the groups in the shuttle box was evaluated by multi-factor analysis of variance (ANOVA). Significance regarding the span of time from tumor manifestation until death in rats and regarding aging related changes in bodyweight treated chronically with the enhancer substances was analyzed by One-way ANOVA. Statistical analysis of survival rate and tumor manifestation was performed by the Kaplan-Meier method.

[2] = system: tetrabenazine-induced learning deficit; assay: Shuttle box: conditioned avoidance reflex, antagonism of tetrabenazine-induced learning deficit; format: in vivo, rat; conditions: for very high dose range effective in antagonizing the tetrabenazine-induced learning deficit: attributed to inhibition of MAO-A; for optimal dose that exerted the specific enhancer effect: rats given 1 mg/kg tetrabenazine s.c. one hour prior to training
Protocol: In a modified version of the shuttle box the acquisition of a two-way conditioned avoidance reflex (CAR) was analyzed during 5 consecutive days. The rat was put in a box divided inside into two parts by a barrier with a small gate in the middle, and the animal was trained to cross the barrier under the influence of a conditioned stimulus (CS, light flash). […] One trial consisted of 10 s intertrial interval, followed by 20 s CS. The last 5 s of CS overlaped the 5 s US. At each learning session, the number of CARs, EFs and intersignal reactions (IRs) are automatically counted and evaluated by multi-way ANOVA.
Tetrabenazine-treatment (1 mg/kg s.c.) depletes at least 90% of norepinephrine and dopamine from their stores in the nerve terminals of the catecholaminergic neurons in the brain stem. Due to the weak performance of the catecholaminergic brain engine, the activation of the cortical neurons remains below the level required for the acquisition of a CAR. The learning deficit caused by tetrabenazine-treatment can be antagonized by the administration of a synthetic CAE substance or an A-type MAO inhibitor, whereas selective inhibition of B-type MAO or inhibition of the reuptake of catecholamines and/or serotonin is ineffective (Knoll et al., 1992).

Daoy HTB-186 cell line = assay: MTT proliferation assay, Daoy medulloblastoma cells; format: cell-based, human; conditions: 72 hours; for proliferation of cultured cells, monotherapy: nine concentrations between 10^-14 and 10^-6 M, MTT
Protocol: as §1, §2, §3, §4

[3] = 10^-13 or 10^-8 M combined with temozolomide, Cisplatin, etoposide or Vincristin

SMILES: CCCN[C@H](CCC)Cc1cc2ccccc2o1 [(−)-BPAP, (R)-1-(benzofuran-2-yl)-2-propylamino pentane]
- released amount of labeled transmitter ([3H]-norepinephrine, [3H]-dopamine or [3H]-serotonin) versus absence of substance [1]: significantly higher
- effectiveness of tumor-cell proliferation inhibiting agents in combination (UW-228-2 cell line; [3]): did not change the effectiveness
- proliferation of cultured cells, monotherapy (UW-228-2 cell line): did not inhibit the proliferation
- proliferation of cultured cells, monotherapy (UW-228-2 cell line; listed as BPAP): In none of the applied concentrations
- tumor manifestation suppressing (TMS) effect versus saline (fibromyxosarcoma; 0.0001 mg/kg, Kaplan-Meier, P<0.001 (FIG. 12)): significantly decreased
- tumor manifestation suppressing (TMS) effect versus saline (fibromyxosarcoma; 0.0001 mg/kg, Kaplan-Meier, P<0.001 (FIG. 12), listed as BPAP): suppressed the manifestation of the fibromyxosarcoma significantly
- month in which the last animal manifested the tumor (fibromyxosarcoma; 0.0001 mg/kg): 31 month
- rats that manifested the tumor to the end of the 32nd month of age (fibromyxosarcoma; 0.0001 mg/kg): 8 rats
- rats that manifested the tumor when the group completed the 30th month of life (fibromyxosarcoma; 0.0001 mg/kg, P<0.001): 8 rats
- age at which the first animal manifested the tumor (fibromyxosarcoma; 0.0001 mg/kg): 20 month
- age at which the first animal manifested the tumor (fibromyxosarcoma; 0.0001 mg/kg, listed as BPAP): 25 month
- tumor manifestation suppressing (TMS) effect versus saline (fibromyxosarcoma; 0.05 mg/kg, Kaplan-Meier, P<0.001 (FIG. 11)): significantly decreased
- tumor manifestation suppressing (TMS) effect versus saline (fibromyxosarcoma; 0.05 mg/kg, Kaplan-Meier, P<0.001 (FIG. 11), listed as BPAP): suppressed the manifestation of the fibromyxosarcoma significantly
- month in which the last animal manifested the tumor (fibromyxosarcoma; 0.05 mg/kg): 29 month
- rats that manifested the tumor to the end of the 32nd month of age (fibromyxosarcoma; 0.05 mg/kg): 7 rats
- rats that manifested the tumor when the group completed the 30th month of life (fibromyxosarcoma; 0.05 mg/kg, P<0.001): 7 rats
- age at which the first animal manifested the tumor (fibromyxosarcoma; 0.05 mg/kg): 13 month
- span of time from tumor manifestation until death, versus saline (fibromyxosarcoma): no significant difference
- very high dose range effective in antagonizing the tetrabenazine-induced learning deficit [2]: 2000 to 10000 µg/kg
- optimal dose that exerted the specific enhancer effect [2]: 0.1 µg/kg
- dose with the non-specific enhancer effect selected for the longevity study ([2]; rats given 1 mg/kg tetrabenazine s.c., for Deprenyl the less effective dose was chosen): 50 µg/kg
- effectiveness of tumor-cell proliferation inhibiting agents in combination (Daoy HTB-186 cell line; [3]): did not change the effectiveness
- proliferation of cultured cells, monotherapy (Daoy HTB-186 cell line): did not inhibit the proliferation
- proliferation of cultured cells, monotherapy (Daoy HTB-186 cell line; listed as BPAP): In none of the applied concentrations

SMILES: C#CCN(C)[C@H](C)Cc1ccccc1 [(−)-Deprenyl, (R)—N-methyl-N-(1-phenylpropan-2-yl)prop-2-yn-1-amine]
- released amount of labeled transmitter ([3H]-norepinephrine, [3H]-dopamine or [3H]-serotonin) versus absence of substance [1]: significantly higher
- proliferation of cultured cells, monotherapy (UW-228-2 cell line; listed as (−)-deprenyl): did not inhibit the proliferation
- proliferation of cultured cells, monotherapy (UW-228-2 cell line; listed as Deprenyl): In none of the applied concentrations
- tumor manifestation suppressing (TMS) effect versus saline (fibromyxosarcoma; 0.001 mg/kg, Kaplan-Meier (FIG. 10)): not significant
- month in which the last animal manifested the tumor (fibromyxosarcoma; 0.001 mg/kg): 29 month
- rats that manifested the tumor to the end of the 32nd month of age (fibromyxosarcoma; 0.001 mg/kg): 15 rats
- age at which the first animal manifested the tumor (fibromyxosarcoma; 0.001 mg/kg): 12 month
- age at which the first animal manifested the tumor (fibromyxosarcoma; 0.1 mg/kg s.c. 3 times a week): 16 month
- tumor manifestation suppressing (TMS) effect versus saline (fibromyxosarcoma; 0.1 mg/kg, Kaplan-Meier, P<0.01 (FIG. 9), listed as (−)-deprenyl): significantly decreased
- tumor manifestation suppressing (TMS) effect versus saline (fibromyxosarcoma; 0.1 mg/kg, Kaplan-Meier, P<0.01 (FIG. 9), listed as Deprenyl): suppressed the manifestation of the fibromyxosarcoma significantly
- month in which the last animal manifested the tumor (fibromyxosarcoma; 0.1 mg/kg): 32 month
- rats that manifested the tumor to the end of the 32nd month of age (fibromyxosarcoma; 0.1 mg/kg): 11 rats
- rats that manifested the tumor when the group completed the 30th month of life (fibromyxosarcoma; 0.1 mg/kg, P<0.01): 11 rats
- span of time from tumor manifestation until death, versus saline (fibromyxosarcoma): no significant difference
- form of the dose-effect relation of the enhancer effect ([2]; FIG. 3): bi-modal, bell-shaped dose-effect-relation
- very high dose range effective in antagonizing the tetrabenazine-induced learning deficit [2]: 5000 to 10000 µg/kg
- optimal dose that exerted the specific enhancer effect [2]: 1 µg/kg
- proliferation of cultured cells, monotherapy (Daoy HTB-186 cell line; listed as (−)-deprenyl): did not inhibit the proliferation
- proliferation of cultured cells, monotherapy (Daoy HTB-186 cell line; listed as Deprenyl): In none of the applied concentrations

Source: patent US10258598B2, “Compounds for use in the prevention or treatment of cancer” ([…], priority 2014, dated 2019)
